Legend:
[1] = system: pneumococcal colonization (Spn); experiment: Experiments mimicking pneumococcal colonization of the human airways; type: cell-based, Streptococcus pneumoniae; conditions: 0.5 mg/ml; colonization otherwise at density of 1×10^7 cfu/mL pneumococci
Protocol: (§1) Streptococcus pneumoniae (Spn) colonizes the upper airways of most children. From the upper airways, Spn migrates to the ear epithelium causing otitis media, a main cause of child disease in the US. Resistance in Spn strains is a serious concern. Bile salts produced in the human liver and secreted into the gut, including sodium deoxycholate. Sodium deoxycholate at a concentration of 10 mg/mL is an injectable treatment to reduce fat under the chin. The antibacterial potency of sodium deoxycholate against Spn was assessed. […] Most tested pneumococcal strains were reference strains provided by the Centers for Disease Control and Prevention (CDC). […] It is contemplated that sodium deoxycholate can be used as a prophylactic agent to eradicate Spn from the upper airways and/or as a therapeutic agent to treat pneumococcal otitis media. To eradicate Spn from the upper airways of healthy children, a strategy using the following routes can be pursued (1) the use of nasal spray to impregnate the upper airways with sodium deoxycholate, or (2) as an additive to a gel or toothpaste. For its therapeutic used in the treatment of otitis media, ototopical antibiotic preparations can be added with sodium deoxycholate to kill antibiotic resistance Spn strains.

[2] = system: Streptococcus pneumoniae (Spn) strains; experiment: Antibacterial potency of sodium deoxycholate against cultures of Spn strains; type: cell-based; conditions: concentration as low as 0.5 mg/ml; within two hours of incubation; numerous different Spn strains including vaccine strains and strains with multiple resistance to antibiotics
Protocol: as §1

Substance: sodium deoxycholate
- time of exposure to eradicate pneumococcal colonization [1]: ≤ 10 min
- killing of cultures of Spn strains [2]: completely killed

From patent US20220401457A1, “Use of Deoxycholic Acid, Derivatives, or Salts Thereof in Managing Bacterial Infections and Compositions Related Thereto” (Emory University, priority 2019, published 2022)
